From paper PMC12593396 (2025)

System: 3WJ (PAGE) (DNA, junction) CGGAACGGCACTCG/CGAGTGCAGCGTGG/CCACGCTCGTTCCG
Experiment: PAGE junction assembly
Conditions: 10 mM NaCl, 1x TB

## [Pt+2].[Pt+2].c1cncc(Oc2ccc(Oc3cccnc3)cc2)c1.c1cncc(Oc2ccc(Oc3cccnc3)cc2)c1.c1cncc(Oc2ccc(Oc3cccnc3)cc2)c1.c1cncc(Oc2ccc(Oc3cccnc3)cc2)c1
0.1 to 5 equivalents
  binding: yes

## C(=Nc1ccc(Cc2ccc(N=Cc3ccccn3)cc2)cc1)c1ccccn1.C(=Nc1ccc(Cc2ccc(N=Cc3ccccn3)cc2)cc1)c1ccccn1.C(=Nc1ccc(Cc2ccc(N=Cc3ccccn3)cc2)cc1)c1ccccn1.[Ni+2].[Ni+2]
  binding: yes
